Measured values from patent US20210254069A1, “COMBINATION THERAPIES COMPRISING C/EBP ALPHA SARNA” (MiNA THERAPEUTICS LIMITED, priority 2018, published 2021).
In the oligonucleotide strings, read from the 5' end, every base follows the letter of its sugar. An asterisk marks phosphorothioate; unmarked linkages are phosphodiester. Other units and linkages are bracketed, terminal groups are in braces. A string of capitals states the bases alone. [invAb] = inverted abasic unit; d = 2'-deoxy (DNA); m = 2'-O-methyl; r = 2'-OH (RNA)

Key:
HCC rat DEN model = test: DEN rat HCC model, tumour volume; type: in vivo; settings: DEN rats; treated 3x/week for 2 weeks (MTL-CEBPA i.v.; sorafenib P.O. 10 mg/kg); sacrifice day 15; PBS 644.7
Protocol: (§1) Male Wistar rats (150-180 g) at 7 weeks of age were obtained from the Animal Center of National Taiwan University. The rats were housed in standard conditions, and all the experiments were conducted in accordance with the “Guide for the Care and Use of Laboratory Animals” prepared by the Institutional Animal Care and Use Committee of National Taiwan University. The rats were given DEN solution daily (Sigma, St Louis, Mo.) as the sole source of drinking water for 6 weeks, followed by 3 weeks of regular water. The DEN solution feeding started with 100 ppm in the first week. The average bodyweight (BW) of the animals was measured once a week per group of five rats, and the concentration of DEN in their drinking water was adjusted in proportion to the BW each week relative to that of the first week. […]
On 15th day after treatment, the animals were sacrificed and tumour size and tumour/liver weight were measured. The body, liver, lung, and spleen were weighed, and the aspects of all organs were recorded. After the animals were sacrificed, all liver lobes were promptly removed and weighed, and the diameters of all of the macroscopically visible nodules on the liver surface and in the 5-mm sliced sections were measured. Tumour burden was determined in terms of two criteria: the ratio of liver weight/BW, and the total volume of all the tumour nodules with diameter >3 mm. […]

advanced HCC = settings: cited from earlier work
alpha-fetoprotein (AFP) = test: DEN rat HCC model, serum alpha-fetoprotein; type: in vivo; settings: DEN rats, 2 weeks dosing, PBS 27
Protocol: as §1
The serum levels of ALT, AST and total bilirubin were measured with VITROS 5.1 FS Chemistry Systems (Ortho-Clinical Diagnostics, Inc.). The serum level of rat alpha-fetoprotein was evaluated with anti-Rat AFP ELISA Kit (USCN life company/China), following the instructions of the manufacturer.
Serum levels of alpha-fetoprotein (AFP) were measured before treatment and compared to measurement after treatment and represented as ‘AFP change’ (mg/dl). Serum AFP change was measured in each group. […]

HCC [1] = settings: single agent, published Phase III; cited from earlier work
[2] = tested on: Nexavar resistant BNL tumour; test: Sorafenib-resistant BNL subcutaneous tumour model; type: in vivo, mouse; settings: after 3 weeks; MTL-CEBPA 4.2 mg/kg IV d1, d3, d5; anti-PD1 250 ug IP d1, d3, d5; Sorafenib 30 mg/kg PO daily
Protocol: Cell Culture: The mouse hepatocellular carcinoma cell line BNL was maintained in Dulbecco's modified Eagle's medium (DMEM, Gibco by Invitrogen) with […] G418 (Merck, Germany), 1% antibiotic antimycotic (Gibco by Invitrogen) and 10% fetal bovine serum (Gibco by Invitrogen) and cultured at 37° C. in a humidified atmosphere.
Tumour Inoculation and Experimental design: Each BALB/c mice were injected subcutaneously (s.c.) on the flank with 3×10^5 BNL-Luc cells in 0.05 ml of PBS. After inoculation for 3 weeks, Nexavar® (Sorafenib) was orally administered every day for two weeks (30 mg/kg/day).
The selected animals were randomized into the 7 treatment groups (Table 18).
60 mice were injected with 3×10^5 of BNL-Luc cells in […] mixture of PBS. After 3 weeks, the mice were dosed with 30 mg/kg of Sorafenib p.o. every day for 2 weeks. […] The 7 groups included PBS as Control group [PBS]; MTL-CEBPA [C], ([…], I.V., d1, d3, d5); anti-PD1 antibody [P] (250 ug, I.P., d1, d3, d5); Nexavar® (Sorafenib) [N] (30 mg/kg, P.O. daily); MTL-CEBPA+anti-PD1 [C+P]; MTL-CEBPA+Nexavar® (Sorafenib) [C+N] and MTL-CEBPA+anti-PD1+Nexavar® (Sorafenib) [C+P+N].

CEBPA-mRNA = test: qRT-PCR of CEBPA mRNA, CEBPA-51 with FGFR4 antibody; type: cell-based; settings: Hep3B; oligo 10 nM, anti-human FGFR4 antibody 30 ug/ml where applicable; 72 hours post-seeding; Mock, no antibody = 1.00
Protocol: RNA was isolated from cultured cells using the RNeasy Mini Kit (QIAGEN). RNA was quantitated using a Qiaxpert (Qiagen), and reverse transcribed using the Quantitect Reverse Transcription Kit (QIAGEN). Relative expression levels were determined by qPCR using Quantifast SYBR Green Master Mix (QIAGEN) on a Quantstudio 5 (Qiagen). The following Quantitect Primer Assays (QIAGEN) were used: CEBPA_1_SG, FGFR4_1_SG and GAPDH_1_SG. Relative expression was determined the DDCt method normalized to GAPDH expression.
(§2) In another study, Hep3B cells were seeded at 1.0×10^5 cells/well in a 24 well plate in the presence of 30 ug/ml anti-human FGFR4 therapeutic antibody (XPA.48.056; Creative Biolabs) as applicable. Cells were transfected with either 10 nM CEBPA-51 saRNA, 10 nM Control oligo (NC) or transfection agent alone (Mock) at seeding and this was repeated 24 hours post- seeding and culture medium changed at 48 hours. FGFR antibody treatment was maintained throughout the experiment. Cells were harvested for RNA collection 72 hours post-seeding qRT-PCR analysis.

Hep3B cells [3] = test: WST1 growth assay, CEBPA-51 with FGFR4 antibody; type: cell-based; settings: oligo 10 nM, FGFR4 antibody where applicable, Mock, no antibody = 1.00
Protocol: (§3) HepB3 cells were seeded at 1×10^4 cells/well in a 96 well plate, reverse transfected with oligo at seeding and forward transfected 24 hours later. WST cell viability assay was performed as according to the manufactures' instructions (with 24 hr WST incubation). The WST alone signal has been subtracted from the cell-WST signal.
as §2
Treatment of Hep3B cells with FGFR4 antibody reduced cell viability. Combination treatment of both FGFR4 antibody and CEPBA-51 further reduced cell viability as monitored by WST1 growth assay (Table 9A, 96 hours; Table 9B, 120 hours).

Hep3B cells [4] = test: WST-1 growth assay, siFGFR4 / CEBPA-51; type: cell-based; settings: 20 nM, Mock = 1.00
Protocol: HepB3 cells were grown in DMEM supplemented with 10% fetal bovine serum (FBS), 2 mM L-glutamine, and penicillin/streptomycin in a 5% CO2 incubator. Transfections were performed using 2 μL of Lipofectamine 2000 (Life Technologies) per well in 24 well plate.
as §3

HCC [5] = settings: CHECKMATE-040 subgroup, cited from earlier work

Q: What does the source list for `CNC(=O)c1cc(Oc2ccc(NC(=O)Nc3ccc(Cl)c(C(F)(F)F)c3)cc2)ccn1` [Sorafenib]?
A: Tumor volume, Mean (HCC rat DEN model): 299.5 mm^3; decrease in the risk of death (advanced HCC; patients with advanced HCC): 31%; median survival (advanced HCC; patients with advanced disease, placebo 7.9 months): 10.7 months; AFP change (pre-treatment vs post-treatment), Mean (alpha-fetoprotein (AFP)): -36.83 mg/dL; complete responses, share of patients (HCC [1]): 0%; partial responses, share of patients (HCC [1]): 2%; reduction in tumour volume [2]: no effect; reduction in tumour weight [2]: no effect

Q: For `COc1cc2nccc(Oc3ccc(NC(=O)NC4CC4)c(Cl)c3)c2cc1C(N)=O` [lenvatinib], which “partial responses, share of patients” value (HCC [1]) is on record?
A: The value was 24%.

Q: Which CEBPA-mRNA relative expression (CEBPA-mRNA) does the source give for “CEBPA-51: saRNA duplex that upregulates C/EBPa; antisense SEQ ID No. 1, sense SEQ ID No. 2 (sense GCGGUCAUUGUCACUGGUCUU; antisense GACCAGUGACAAUGACCGCUU; sense: sugars from the 5' end mmrmrrrrrmrrrmrrrrrmm, [invAb] at 5' end, backbone not given here; antisense: sugars from the 5' end r19 m2, backbone not given here; further chemistry not fully specified)” here?
A: The CEBPA-mRNA relative expression was 1.31.

Q: What about the Normalized cell viability (Hep3B cells [3]; 96 hours after treatment) of the same molecule?
A: Its Normalized cell viability is 0.32.

Q: And the Normalized cell viability (Hep3B cells [3]; 120 hours after treatment)?
A: Its Normalized cell viability is 0.25.

Q: Which CEBPA-mRNA relative expression (CEBPA-mRNA) does the source give for “NC: Negative control oligonucleotide siFLUC, SEQ ID NO: 6 and 7 (chain 1 rCmUmUrAmCrGmCmUrGrArGmUrAmCmUmUmCrGrAdT*dT; chain 2 rUrCrGrArArGmUrArCrUmCrArGrCrGmUrArArGdT*dT)” here?
A: Its CEBPA-mRNA relative expression is 0.89.

Q: And the Normalized cell viability (Hep3B cells [4]; 96 hours after treatment)?
A: Its Normalized cell viability is 0.62.

Q: What about the Normalized cell viability (Hep3B cells [4]; 120 hours after treatment) of the same molecule?
A: Its Normalized cell viability is 0.70.

Q: And the Normalized cell viability (Hep3B cells [3]; 96 hours after treatment)?
A: The Normalized cell viability was 0.48.

Q: What about the Normalized cell viability (Hep3B cells [3]; 120 hours after treatment) of the same molecule?
A: Its Normalized cell viability is 0.59.

Q: Which results are given for Nivolumab: PD-1 inhibitor, Human IgG?
A: responders with responses lasting 6 months or longer (HCC [5]): 91%; responders with responses lasting 12 months or longer (HCC [5]): 55%; overall response rate (HCC [5]; HCC patients, 95% CI: 9.2, 20.8): 14.3%; complete responses (HCC [5]; HCC patients): 3; partial responses (HCC [5]; HCC patients): 19
